The source made the active and inactive calls.
How the values were obtained:
[1] = inhibitors of HIV Env-driven cell fusion, dose response, cherry-pick (AID 652057); format: functional, cell-based
[2] = NIH-3T3 fibroblast cytotoxicity, dose response, cytotoxicity control, cell-based, fluorescence, Alamar Blue, secondary assay (AID 2327); format: functional;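 also: NIH-3T3 mouse fibroblasts cultured with fluconazole at 8 µg/mL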
[3] = off-target signal loss in HeLa-CEM21 co-culture – HeLa F-luc CTL cells, cherry-picked, counter-screen for HIV-1 Env fusion inhibitor project, dose response (AID 652040); format: functional, cell-based;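 also: potency for signal decrease marking cytotoxic or nonspecific inhibition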
[4] = C. albicans growth with fluconazole, confirmation, fluorescence, retest (AID 2467); format: functional, cell-based
[5] = inhibitors of clade B AD8 Env fusion, dose response, cell-based, cherry-pick (AID 652062); format: functional;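 also: luciferase signal from cell-cell fusion driven by HIV-1 clade B AD8 Env; potency is for inhibitors of fusion seen as a drop in luminescence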
[6] = ZM109 Env clade C HIV-1 fusion inhibitors, dose response, HeLa effector, CEM target cells, luciferase, cherry-pick (AID 652058); format: functional, cell-based
cells [7] = experiment: cells
[8] = inhibitors of intracellular T. cruzi replication, confirmation, NIH3T3 host cells, beta-gal luminescence (AID 2044); format: functional, cell-based;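 also: intracellular parasites grown in NIH/3T3 mouse fibroblasts as host cells; luminescent beta-galactosidase reporter signal from transgenic T. cruzi replicating inside host cells; inhibitors lower the luminescence signal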
[9] = cytotoxicity toward NIH3T3 fibroblasts, dose response, counter-screen, cell-based, ATP luminescence, mouse fibroblasts (AID 2010); format: functional;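 also: cells exposed to compound for about 90 hours before reading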
cells [10] = format: functional, cell-based
cells [11] = format: functional, cell-based; remark: listed apart in the source
[12] = target: T1, Corticotropin-releasing factor receptor 2/Corticotropin-releasing factor-binding protein (Homo sapiens, UniProt P24387+Q13324); experiment: activators of CRF receptor 2 with binding protein – uHTS hits, confirmation (AID 602473); format: functional; details: read-out: EC50_Mean
T1 sequence (Q13324 whole entry): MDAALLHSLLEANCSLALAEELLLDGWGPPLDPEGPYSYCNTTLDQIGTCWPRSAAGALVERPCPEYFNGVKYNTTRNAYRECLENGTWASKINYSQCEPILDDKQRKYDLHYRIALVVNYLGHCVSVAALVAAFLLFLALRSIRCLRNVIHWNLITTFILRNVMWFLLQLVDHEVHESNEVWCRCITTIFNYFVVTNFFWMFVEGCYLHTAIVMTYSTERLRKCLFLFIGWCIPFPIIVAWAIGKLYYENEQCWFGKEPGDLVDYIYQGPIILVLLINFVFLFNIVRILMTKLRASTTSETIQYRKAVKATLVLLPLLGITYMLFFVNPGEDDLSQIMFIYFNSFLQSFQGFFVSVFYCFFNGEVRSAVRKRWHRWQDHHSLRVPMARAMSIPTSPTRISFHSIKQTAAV
T1 sequence (P24387 whole entry): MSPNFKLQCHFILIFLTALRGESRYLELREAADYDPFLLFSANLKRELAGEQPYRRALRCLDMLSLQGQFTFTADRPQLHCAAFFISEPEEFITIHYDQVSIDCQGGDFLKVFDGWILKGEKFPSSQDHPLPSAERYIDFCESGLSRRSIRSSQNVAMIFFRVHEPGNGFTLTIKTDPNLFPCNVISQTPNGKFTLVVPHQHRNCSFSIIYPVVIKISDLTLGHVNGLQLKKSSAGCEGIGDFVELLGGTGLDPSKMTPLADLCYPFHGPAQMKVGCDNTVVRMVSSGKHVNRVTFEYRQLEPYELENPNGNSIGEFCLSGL

[13] = target: T1, Corticotropin-releasing factor receptor 2/Corticotropin-releasing factor-binding protein; experiment: Dose Response confirmation of uHTS hits for small molecule antagonists of the CRF-binding protein and CRF-R2 receptor complex.; format: functional; details: read-out: IC50_Mean
[14] = CRF-BP/CRF-R2 complex antagonists, dose response, cell-based, uHTS hits, 384-well (AID 651639); format: functional, Homo sapiens; details: read-out: IC50_Mean
[15] = target: T2, Calpain-2 catalytic subunit (Sus scrofa, UniProt P43367); experiment: pig calpain II inhibitor potency, dose response, biochemical, fluorogenic peptide substrate (AID 1420); format: functional
T2 sequence (P43367 whole entry): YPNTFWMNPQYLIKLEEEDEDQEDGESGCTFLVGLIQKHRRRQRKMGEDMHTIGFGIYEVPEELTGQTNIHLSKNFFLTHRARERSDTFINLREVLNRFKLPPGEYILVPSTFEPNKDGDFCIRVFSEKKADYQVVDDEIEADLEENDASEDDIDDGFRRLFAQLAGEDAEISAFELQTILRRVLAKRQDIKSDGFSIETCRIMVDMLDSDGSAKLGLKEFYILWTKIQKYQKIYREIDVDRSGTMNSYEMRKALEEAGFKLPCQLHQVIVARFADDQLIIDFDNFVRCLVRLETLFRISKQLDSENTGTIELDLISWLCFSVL

[16] = target: ATP-dependent molecular chaperone HSP82 (Candida albicans (strain WO-1) (Yeast), UniProt C4YTQ8); experiment: loss of DOC-induced GRE-beta-galactosidase reporter signal, dose response, Hsp90 inhibitor project, S. cerevisiae, luminescence (AID 2400); format: functional, cell-based;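 also: beta-galactosidase luminescence from glucocorticoid response element reporter as proxy for Hsp90 function; inhibitor potency where signal loss means Hsp90 inhibition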
ATP-dependent molecular chaperone HSP82, sequence (C4YTQ8 whole entry): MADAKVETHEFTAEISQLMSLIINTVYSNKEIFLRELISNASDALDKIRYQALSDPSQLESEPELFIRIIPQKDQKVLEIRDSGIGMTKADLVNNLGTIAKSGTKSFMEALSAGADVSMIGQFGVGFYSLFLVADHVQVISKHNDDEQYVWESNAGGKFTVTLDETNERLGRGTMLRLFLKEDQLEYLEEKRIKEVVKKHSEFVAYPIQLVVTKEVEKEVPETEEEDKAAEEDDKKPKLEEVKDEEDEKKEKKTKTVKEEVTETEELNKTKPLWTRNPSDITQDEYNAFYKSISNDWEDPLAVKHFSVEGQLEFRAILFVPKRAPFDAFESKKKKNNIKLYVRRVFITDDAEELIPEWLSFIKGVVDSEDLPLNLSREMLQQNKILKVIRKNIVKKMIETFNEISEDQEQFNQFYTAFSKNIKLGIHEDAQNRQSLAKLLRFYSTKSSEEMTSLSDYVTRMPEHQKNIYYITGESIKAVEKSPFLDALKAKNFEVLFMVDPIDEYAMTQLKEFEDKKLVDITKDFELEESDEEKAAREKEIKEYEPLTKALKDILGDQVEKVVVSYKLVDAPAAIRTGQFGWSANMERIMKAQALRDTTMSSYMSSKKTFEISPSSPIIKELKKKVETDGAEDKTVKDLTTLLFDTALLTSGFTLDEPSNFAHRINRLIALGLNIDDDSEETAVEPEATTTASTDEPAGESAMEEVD

[17] = tested on: Streptococcus sp. 'group A'; experiment: growth inhibition of control SK(-) GAS strain, dose response, counter-screen for streptokinase expression inhibitor project, luminescence, kanamycin, BacTiterGlo, confirmation (AID 1900); format: functional, organism-based
Cytochrome P450 1A2 = target: T3, Cytochrome P450 1A2 (Homo sapiens, UniProt P05177);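 also: PubChem cytochrome P450 panel assay, CYP1A2 panel member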
T3 sequence (P05177 whole entry): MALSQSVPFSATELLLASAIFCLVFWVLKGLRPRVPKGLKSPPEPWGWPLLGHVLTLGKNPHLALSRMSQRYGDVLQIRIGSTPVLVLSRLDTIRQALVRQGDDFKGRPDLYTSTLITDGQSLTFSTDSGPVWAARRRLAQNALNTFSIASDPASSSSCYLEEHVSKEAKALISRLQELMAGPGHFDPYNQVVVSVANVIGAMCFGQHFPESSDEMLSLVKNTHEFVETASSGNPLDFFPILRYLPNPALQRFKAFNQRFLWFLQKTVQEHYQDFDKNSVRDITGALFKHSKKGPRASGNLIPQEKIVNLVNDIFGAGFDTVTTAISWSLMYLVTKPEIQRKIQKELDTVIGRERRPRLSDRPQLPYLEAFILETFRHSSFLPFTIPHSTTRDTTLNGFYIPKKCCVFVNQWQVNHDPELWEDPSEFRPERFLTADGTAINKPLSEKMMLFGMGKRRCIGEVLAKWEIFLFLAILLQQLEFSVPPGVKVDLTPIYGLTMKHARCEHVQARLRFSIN

[18] = target: T4, Serine/threonine-protein phosphatase (Candida dubliniensis (strain CD36 / CBS 7987 / NCPF 3949 / NRRLY-17841) (Yeast), UniProt B9W6M3); experiment: calcineurin pathway inhibitors in yeast reporter, dose response, S. cerevisiae, CDRE-lacZ, luminescence, secondary (AID 2388); format: functional, cell-based;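 also: yeast reporter cells carrying a calcineurin-responsive lacZ construct stimulated with calcium chloride; luminescent beta-galactosidase reporter signal in whole cells rather than isolated phosphatase activity; potency for inhibition where a drop in reporter signal means calcineurin blockade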
T4 sequence (B9W6M3 whole entry): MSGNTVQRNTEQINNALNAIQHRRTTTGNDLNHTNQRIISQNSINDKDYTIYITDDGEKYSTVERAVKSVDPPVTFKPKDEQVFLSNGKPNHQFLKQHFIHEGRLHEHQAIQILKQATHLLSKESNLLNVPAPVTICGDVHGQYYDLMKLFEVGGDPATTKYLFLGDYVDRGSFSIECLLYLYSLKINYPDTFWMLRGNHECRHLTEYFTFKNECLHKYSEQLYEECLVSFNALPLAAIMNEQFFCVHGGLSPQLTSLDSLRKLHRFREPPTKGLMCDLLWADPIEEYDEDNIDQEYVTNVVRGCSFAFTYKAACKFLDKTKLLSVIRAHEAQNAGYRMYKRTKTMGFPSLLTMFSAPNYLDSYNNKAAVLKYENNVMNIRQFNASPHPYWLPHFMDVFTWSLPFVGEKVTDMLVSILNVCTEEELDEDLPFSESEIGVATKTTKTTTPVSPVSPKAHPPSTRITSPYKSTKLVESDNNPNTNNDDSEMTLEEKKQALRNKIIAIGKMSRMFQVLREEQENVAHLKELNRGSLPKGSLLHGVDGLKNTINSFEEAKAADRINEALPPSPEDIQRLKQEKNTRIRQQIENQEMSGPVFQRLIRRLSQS

Streptococcus = experiment: Group A Streptococcus viability loss, dose response, counter-screen for streptokinase expression inhibitor project, luminescence, BacTiterGlo (AID 1915); format: functional, organism-based;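 also: potency for reduction of bacterial viability or growth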
Leucine aminopeptidase = target: T5, Leucine aminopeptidase (Plasmodium falciparum 3D7, UniProt Q8IL11); experiment: P. falciparum M17LAP inhibitors, primary screen, biochemical, fluorogenic H-Leu-NHMec substrate, 1536-well (AID 1619); format: functional
T5 sequence (Q8IL11 whole entry): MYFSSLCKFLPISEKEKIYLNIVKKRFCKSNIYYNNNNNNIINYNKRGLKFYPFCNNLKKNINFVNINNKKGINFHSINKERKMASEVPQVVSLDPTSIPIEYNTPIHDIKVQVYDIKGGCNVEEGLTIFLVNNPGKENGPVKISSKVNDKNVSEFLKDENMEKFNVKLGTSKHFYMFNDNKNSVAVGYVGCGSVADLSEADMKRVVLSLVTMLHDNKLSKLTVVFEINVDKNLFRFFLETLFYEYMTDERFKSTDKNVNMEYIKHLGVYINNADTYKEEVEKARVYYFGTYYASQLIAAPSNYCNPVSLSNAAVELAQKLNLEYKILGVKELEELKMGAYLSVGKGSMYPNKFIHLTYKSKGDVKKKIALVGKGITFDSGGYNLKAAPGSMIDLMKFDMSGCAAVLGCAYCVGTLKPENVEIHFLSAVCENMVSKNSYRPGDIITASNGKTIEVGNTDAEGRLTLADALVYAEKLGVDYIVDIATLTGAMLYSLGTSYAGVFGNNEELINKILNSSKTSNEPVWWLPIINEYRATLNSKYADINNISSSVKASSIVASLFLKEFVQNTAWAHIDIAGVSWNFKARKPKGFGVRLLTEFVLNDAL

BJ [19] = experiment: cytotoxicity toward BJ-TERT-LT-ST fibroblasts, dose response, cell-based, RAS-independent, luminescence (AID 1935); format: functional; details: Homo sapiens;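 also: BJ fibroblasts immortalized with TERT plus LT and ST oncogenes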
BJ [20] = experiment: cytotoxicity toward BJ-TERT fibroblasts, dose response, cell-based, RAS-independent, luminescence (AID 1933); format: functional; details: Homo sapiens
BJ [21] = experiment: cells; format: functional, cell-based; details: Homo sapiens
[22] = cytotoxicity toward DRD oncogenic fibroblasts, dose response, cell-based, non-viral oncogenic, luminescence (AID 1934); format: functional; details: Homo sapiens
Cytochrome P450 2D6 = Cytochrome P450 2D6 (Homo sapiens, UniProt P10635);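 also: CYP2D6 member of a cytochrome P450 panel assay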
Cytochrome P450 2D6, sequence (P10635 whole entry): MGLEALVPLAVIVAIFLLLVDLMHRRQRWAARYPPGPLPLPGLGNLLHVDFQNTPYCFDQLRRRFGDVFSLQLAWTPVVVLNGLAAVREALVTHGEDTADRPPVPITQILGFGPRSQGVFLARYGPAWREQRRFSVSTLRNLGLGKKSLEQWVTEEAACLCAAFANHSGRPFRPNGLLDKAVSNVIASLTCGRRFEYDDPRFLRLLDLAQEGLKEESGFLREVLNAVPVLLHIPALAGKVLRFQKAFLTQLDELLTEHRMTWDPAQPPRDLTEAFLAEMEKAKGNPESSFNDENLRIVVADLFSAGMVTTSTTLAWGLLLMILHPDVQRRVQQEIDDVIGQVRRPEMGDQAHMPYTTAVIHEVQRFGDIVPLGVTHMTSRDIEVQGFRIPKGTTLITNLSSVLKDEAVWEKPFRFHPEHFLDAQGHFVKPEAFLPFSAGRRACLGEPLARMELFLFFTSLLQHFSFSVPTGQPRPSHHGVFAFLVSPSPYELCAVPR

CC1CCc2c(sc3ncnc(N4CCOCC4)c23)C1 (configuration not stated)
AC50 [1]: 22.5 µM (active)
EC50 [2]: > 160 µM (inactive)
AC50 [3]: 20.8 µM (active)
EC50 [4]: > 38 µM (not active)
AC50 [5]: 4.54 µM (active)
AC50 [6]: 0.858 µM (active)

CC(C)Cc1ccc(CN2CCCC(NC(=O)c3nn(C)c(=O)c4ccccc34)C2)cc1 (configuration not stated)
EC50 (cells [7]): 0.021 µM (active)
EC50 [8]: < 0.1 µM (active)
EC50 [9]: 8.66 µM (active)

Cc1cc(O)nc(SCC(=O)NCCc2ccccc2)n1
IC50 (cells [10]): > 29.9 µM (inactive)
EC50 (cells [11]): > 29.9 µM (inactive)

O=C(NC1CCCCC1)C(c1ccc(Cl)cc1)N(C(=O)c1cnccn1)c1ccc2c(c1)OCO2 (configuration not stated)
AC50 [1]: 3.15 µM (active)
EC50 [2]: > 150 µM (inactive)
AC50 [3]: 7.12 µM (active)
EC50 [4]: > 38 µM (not active)
AC50 [5]: 1.95 µM (active)
AC50 [6]: 2.47 µM (active)

O=C(Nc1cc(S(=O)(=O)N2CCCCC2)ccc1N1CCCCC1)C1CC1
EC50 [12]: > 53 µM (inactive)
IC50 [13]: < 0.368 µM (active)
IC50 [14]: > 20 µM (inactive)

CCN(C1CCCCC1)S(=O)(=O)c1ccc(S(=O)(=O)N(CC(=O)Nc2ccccc2)C2CC2)cc1
EC50 [8]: 1.93 µM (active)
AC50 [1]: 4.9 µM (active)
AC50 [3]: 27.9 µM (active)
AC50 [5]: 7.31 µM (active)
AC50 [6]: 6.25 µM (active)
EC50 [9]: > 60 µM (not active)

CCOC(=O)Nc1ccc(Oc2ccccc2)cc1
EC50 [12]: > 53 µM (inactive)
IC50 [13]: 15.2 µM (active)
IC50 [14]: > 20 µM (inactive)

CC(=O)c1ccc(N2CCN(C(=O)c3cccc(Oc4ccccc4)c3)CC2)cc1
IC50 [15]: 12.3 µM (not active)
EC50 [12]: > 53 µM (inactive)
IC50 [13]: 2.16 µM (active)
IC50 [14]: 6.67 µM (active)

O=C(CCc1ccccc1)NNC(=S)NC(=O)c1ccccc1
EC50 [16]: 16.4 µM (active)
EC50 [17]: 1.27 µM (active)
AC50 (Cytochrome P450 1A2): 14.1 µM (inconclusive)
EC50 [18]: 19.2 µM (active)
EC50 [2]: > 150 µM (inactive)
EC50 (Streptococcus): 5.07 µM (active)
EC50 [4]: 1.01 µM (active)
IC50 (Leucine aminopeptidase): 41.3 µM (active)

COc1ccc(C(=O)/C(C#N)=N/Nc2ccccc2[N+](=O)[O-])cc1
EC50 [12]: > 53 µM (inactive)
EC50 (BJ [19]): 21.5 µM (inconclusive)
EC50 (BJ [20]): 10.7 µM (active)
IC50 [13]: 4.66 µM (active)
IC50 [14]: 11 µM (active)
EC50 (BJ [21]): 19.4 µM (inconclusive)
EC50 [22]: 2.84 µM (active)

CCCCN(c1ccc(C(=O)OC)cc1)S(=O)(=O)c1ccccc1
EC50 [12]: > 53 µM (inactive)
IC50 [13]: < 0.368 µM (active)
IC50 [14]: > 20 µM (inactive)

COC(=O)C(NC(=O)c1ccc(F)cc1)(Nc1ncc(S(=O)(=O)c2ccc([N+](=O)[O-])cc2)s1)C(F)(F)F (configuration not stated)
EC50 [12]: > 53 µM (inactive)
AC50 (Cytochrome P450 2D6): 31.6 µM (inconclusive)
IC50 [13]: 16.3 µM (active)
IC50 [14]: 14.5 µM (active)

Cc1ccc(-n2nc3c(=O)n(CC(=O)NCCc4ccccc4C)nc(C)c3c2C)cc1
IC50 (cells [10]): > 29.9 µM (inactive)
EC50 (cells [11]): > 29.9 µM (inactive)
